Measured values as given in patent publication US10947273B2, “Peptides of use in the preventive and curative treatment of alopecia” (Institut Europeen de Biologie Cellulaire, priority 2015, dated 2021).
Marks after values point to notes of the source that are not given here. The star is where a group is joined. Palmitoyl = CCCCCCCCCCCCCCCC(=O)*

Legend:
[1] = tested on: KGF; experiment: KGF secretion by HFDPC (ELISA/BioPlex); assay type: cell-based, human; conditions: 48h
Experimental: (§1) NHDF, HFDPC, HHFK and NHEM cells were treated with the peptides studied for 48h. At the end of the treatment, cell supernatants were collected and stored at −80° C. until analysis. The factors of interest secreted into the supernatant were assayed by ELISA® (R&D) or BioPlex® (BioRad®).
(§2) The results are expressed as percent increase in the concentration of the factor present in the supernatant relative to the untreated control. The intensity of the effect varies as a function of the concentration of the peptide studied and of the cell type treated.

[2] = tested on: IGF1; experiment: qPCR (TLDA) IGF1 gene expression in HFDPC; assay type: cell-based, human; conditions: peptide 10^−9, 24 hours, relative to untreated controls
Experimental: (§3) To study the effect of 9 peptides on these genes, HFDPC were treated for 24 hours with the molecules tested at 10^−7M and 10^−9M concentrations.
(§4) RNA was extracted and purified from cell pellets using the RNA XS Kit (Macherey-Nagel). RNA quantification was carried out with a NanoDrop device and sample quality was verified on a Bioanalyzer with RNA 6000 Nano chips (Agilent). cDNA was synthesized from 300 ng of RNA using the High-Capacity cDNA Reverse Transcription Kit (LifeTech). Quality-control qPCR assays of the cDNA were carried out in microplates on the reference gene, GAPDH, and the SIRT1 gene.
(§5) Final qPCR experiments were carried out in a 1 μl volume on microfluidic cards (TaqMan Low Density Arrays, LifeTech) and the ABI 7900HT qPCR device. Amplification reactions were performed in duplicate using 1 to 2 ng of cDNA per qPCR reaction and TaqMan Universal Master Mix II (LifeTech).
(§6) Ct values were obtained using the RQ Manager software. For analyses of qPCR results, Ct values were limited to 35 cycles and the duplicate assays are averaged. The GeneXPro software was used for the studies of stability and of selection of the best reference genes. Expression variations are calculated by the relative quantification method and are expressed as percent increase in expression of the gene of interest relative to the untreated controls.

[3] = tested on: microdissected hairs from scalp surgery specimens; experiment: Growth of isolated hair ex vivo; assay type: cell-based, human; conditions: for Growth at D 11/D 12 Vs Control: ex vivo isolated hair
Experimental: This study was carried out on microdissected hairs from scalp surgery specimens from women aged 52 to 71 years. Isolated hairs were kept alive for 11 to 12 days in Williams medium, under conventional cell culture conditions (37° C., 5% CO2). […]
To evaluate the effect of (1), (6) or (9) on hair growth, the hairs were photographed and their lengths measured using image analysis software. Thus, the growth of the hairs between D0 and D11/D12 could be calculated and compared with that of the untreated control. At the end of the treatments (D11 or D12), the hairs were collected and frozen or fixed for immunolabeling and histological staining.

[4] = tested on: NGF; experiment: NGF secretion by HHFK (ELISA/BioPlex); assay type: cell-based, human; conditions: 10^−7 M, 48h
Experimental: as §1, §2

[5] = tested on: SCF; experiment: SCF secretion by HHFK (ELISA/BioPlex); assay type: cell-based, human; conditions: 10^−7 M, 48h
Experimental: as §1, §2

[6] = tested on: BMP2; experiment: BMP2 secretion by HFDPC (ELISA/BioPlex); assay type: cell-based, human; conditions: 10^−5 M, 48h
Experimental: as §1, §2

[7] = tested on: PDGF; experiment: PDGF secretion by HFDPC (ELISA/BioPlex); assay type: cell-based, human; conditions: 48h
Experimental: as §1, §2

[8] = tested on: VEGF; experiment: VEGF secretion by NHEM (ELISA/BioPlex); assay type: cell-based, human; conditions: 10^−7 M, 48h
Experimental: as §1, §2

[9] = tested on: VEGF; experiment: qPCR (TLDA) VEGF gene expression in HFDPC; assay type: cell-based, human; conditions: peptide 10^−5 M (table title), 24 hours, relative to untreated controls
Experimental: as §4, §5, §6

[10] = tested on: BMP2; experiment: qPCR (TLDA) BMP2 gene expression in HFDPC; assay type: cell-based, human; conditions: peptide 10^−9, 24 hours, relative to untreated controls
Experimental: as §3, §4, §5, §6

[11] = tested on: normal human dermal fibroblasts (NHDF); experiment: CellTiter-Blue proliferation of NHDF; assay type: cell-based; conditions: 10^−5M, 72 hours
Experimental: Cell proliferation and viability were evaluated in vitro with a kit from Promega, CellTiter-Blue® Cell Viability Assay, for estimating the number of living cells present in the culture. This kit is based on detection, by measurement of fluorescence, of conversion of the dye, resazurin, into a fluorescent product (resorufin) by living and thus metabolically active cells.
The effect of the peptides tested, (1) and (9), at 4 different concentrations (10^−5, 10^−7, 10^−9 and 10^−11M) was examined on five cell types: immortalized human skin keratinocytes (HaCaT), human hair follicular keratinocytes (HHFK), normal human dermal fibroblasts (NHDF), hair follicle dermal papilla cells (HFDPC), and normal human epidermal melanocytes (NHEM) exposed to the molecule studied for 72 hours.

[12] = tested on: NGF; experiment: NGF secretion by NHDF (ELISA/BioPlex); assay type: cell-based, human; conditions: 48h
Experimental: as §1, §2

[13] = tested on: HGF; experiment: HGF secretion by HHFK (ELISA/BioPlex); assay type: cell-based, human; conditions: 10^−7 M, 48h
Experimental: as §1, §2

[14] = tested on: VEGF; experiment: VEGF secretion by NHDF (ELISA/BioPlex); assay type: cell-based, human; conditions: 10^−7 M, 48h
Experimental: as §1, §2

[15] = tested on: genes whose expression is reduced in subjects characterized by alopecia; experiment: qPCR (TLDA) overall statement, genes involved in alopecia, HFDPC; assay type: cell-based, human; conditions: summary of Table 1
Experimental: as §3, §4, §5, §6

[16] = tested on: SCF; experiment: SCF secretion by NHDF (ELISA/BioPlex); assay type: cell-based, human; conditions: 10^−5 M, 48h
Experimental: as §1, §2

[17] = tested on: VEGF; experiment: VEGF secretion by HFDPC (ELISA/BioPlex); assay type: cell-based, human; conditions: 10^−5 M, 48h
Experimental: as §1, §2

Substance: Palm-Ala-Ala-Pro-Ala-Lys-NH2 (Palmitoyl-AAPAK-NH2; SMILES CCCCCCCCCCCCCCCC(=O)N[C@@H](C)C(=O)N[C@@H](C)C(=O)N1CCC[C@H]1C(=O)N[C@@H](C)C(=O)N[C@@H](CCCCN)C(N)=O) [(6)]
- KGF secretion, percent increase relative to untreated control ([1]; 10^−5 M): KGF 7%
- KGF secretion, percent increase relative to untreated control ([1]; 10^−7 M): KGF 13%
- % stimulation IGF1 gene expression [2]: 94% (10^−9)
- Growth at D 11/D 12 Vs Control ([3]; 10^−7 M): +28%
- Growth at D 11/D 12 Vs Control ([3]; 10^−9 M): +38%#
- growth increase compared with minoxidil sulphate ([3]; peptide 10^−9M, minoxidil sulphate 10^−5 M): higher than that obtained after treatment with minoxidil sulphate
- hair growth after 11 to 12 days of treatment ex vivo (in words) ([3]; summary of Table 3): stimulate hair growth
- NGF secretion, percent increase relative to untreated control [4]: NGF 10%
- SCF secretion, percent increase relative to untreated control [5]: SCF 9%
- BMP2 secretion, percent increase relative to untreated control [6]: BMP2 44%
- PDGF secretion, percent increase relative to untreated control ([7]; 10^−5 M): PDGF 15%
- PDGF secretion, percent increase relative to untreated control ([7]; 10^−7 M): PDGF 38%
- VEGF secretion, percent increase relative to untreated control [8]: VEGF 15%
- % stimulation VEGF gene expression [9]: 24%
- % stimulation BMP2 gene expression [10]: 116% (10^−9)
- stimulation of proliferation of NHDF [11]: +11%
- NGF secretion, percent increase relative to untreated control ([12]; 10^−5 M): NGF 51%
- NGF secretion, percent increase relative to untreated control ([12]; 10^−7 M): NGF 12%
- HGF secretion, percent increase relative to untreated control [13]: HGF 52%
- VEGF secretion, percent increase relative to untreated control [14]: VGF 407%
- stimulation of genes whose expression is reduced in alopecia (in words) [15]: stimulate several genes
- SCF secretion, percent increase relative to untreated control [16]: SCF 8%
- VEGF secretion, percent increase relative to untreated control [17]: VEGF 18%
